Among the test systems are HCT-15 colon; UACC-62 melanoma; SK-MEL-28 melanoma; NCI-H226 lung; TK-10 renal; HCT-116 colon; SF-268 CNS; OVCAR-4 ovarian; HS 578T breast; MCF7 breast.
Common to all, as to test: inhibition of tumour cell growth, NCI panel, 48 h

Molecules are shown by their SMILES.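 In this assay, cells in 96-well plates receive the compound at five concentrations for 48 hours. Endpoints are linearly interpolated between the surrounding concentrations. TGI is the concentration that stops growth completely.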

`Cc1ccc2c(=O)cc(-c3ccc(-c4ccccc4)s3)[nH]c2n1`: the TGI is above 100 µM in the experiment with HCT-15 colon; above 100 µM in the experiment with UACC-62 melanoma; above 100 µM with SK-MEL-28 melanoma; above 100 µM in the experiment with NCI-H226 lung; above 91.4 µM in the experiment on TK-10 renal; above 100 µM with HCT-116 colon. Also, the TGI is above 100 µM in the experiment with SF-268 CNS, above 100 µM in the experiment with OVCAR-4 ovarian, above 72.6 µM with HS 578T breast and above 100 µM in the experiment with MCF7 breast.

Consider `COC(=O)C1=C(OC(=O)c2ccccc2)C(C(=O)OC)[C@]2(O)[C@@H](C(=O)OC)[C@H]1C[C@@H](c1ccccc1)[C@@H]2C(=O)OC` (stereo not given in full), for which the TGI with HCT-15 colon is 35.4 µM; in the experiment on UACC-62 melanoma, 60.4 µM; in the experiment on SK-MEL-28 melanoma, 76.3 µM; with NCI-H226 lung, 19.2 µM; with TK-10 renal, 69.9 µM; with HCT-116 colon, 14.2 µM. Moreover, the TGI with SF-268 CNS was 36.8 µM; in the experiment with OVCAR-4 ovarian, above 100 µM; with HS 578T breast, 72.2 µM; in the experiment on MCF7 breast it was 15.7 µM.

With `Cc1nc(-c2ccc(N=Cc3ccc(N(CCOS(C)(=O)=O)CCOS(C)(=O)=O)cc3C)cc2)cs1`, the TGI was above 100 µM with HCT-15 colon; above 100 µM in the experiment on UACC-62 melanoma; above 100 µM in the experiment with SK-MEL-28 melanoma; 28.3 µM with NCI-H226 lung; above 100 µM in the experiment with TK-10 renal; above 100 µM in the experiment on HCT-116 colon. Also, the TGI in the experiment with SF-268 CNS was 40.2 µM; with OVCAR-4 ovarian, above 100 µM; in the experiment with HS 578T breast, above 100 µM; with MCF7 breast it was 53.6 µM.

For the compound `Nc1ccc(CCN2CCN(CCCc3ccccc3)CC2)cc1`, the TGI in the experiment on HCT-15 colon, in the experiment with UACC-62 melanoma, in the experiment with SK-MEL-28 melanoma, with NCI-H226 lung, with TK-10 renal and in the experiment on HCT-116 colon was above 100 µM throughout. Also, the TGI with SF-268 CNS, in the experiment on OVCAR-4 ovarian, with HS 578T breast and in the experiment on MCF7 breast was above 100 µM in each case.

For `COc1ccc2c(c1)CCN1CCc3cc(OC)c(OC)cc3CC21` (stereo not given), the TGI in the experiment with HCT-15 colon, in the experiment on UACC-62 melanoma, in the experiment on SK-MEL-28 melanoma, in the experiment with NCI-H226 lung, with TK-10 renal and with HCT-116 colon was above 100 µM in each case. In addition, the TGI in the experiment with SF-268 CNS, in the experiment on OVCAR-4 ovarian, with HS 578T breast and in the experiment on MCF7 breast was above 100 µM throughout.

On to `Cc1cc(O)c(C(C)C)cc1C1(c2cc(C(C)C)c(O)cc2C)OC(=O)c2ccccc21`, for which the TGI with HCT-15 colon stood at 4.93 µM; in the experiment with UACC-62 melanoma, 2.87 µM; in the experiment with SK-MEL-28 melanoma, 3.07 µM; in the experiment with NCI-H226 lung it was 6.3 µM; in the experiment with TK-10 renal, 11.1 µM; in the experiment on HCT-116 colon it was 3.09 µM. Besides, the TGI was 4.83 µM in the experiment on SF-268 CNS, 5.26 µM in the experiment on OVCAR-4 ovarian, 6.88 µM in the experiment with HS 578T breast and 3.6 µM with MCF7 breast.

On to `N#C/C(=C\c1c[nH]c2ccccc12)C(=O)c1ccc(O)c(O)c1`, for which the TGI in the experiment with HCT-15 colon is above 100 µM; in the experiment on UACC-62 melanoma it was above 100 µM; in the experiment with SK-MEL-28 melanoma it was above 100 µM; in the experiment on NCI-H226 lung, above 100 µM; with TK-10 renal, 98.2 µM; in the experiment on HCT-116 colon it was above 84.8 µM. Besides, the TGI in the experiment with SF-268 CNS, with OVCAR-4 ovarian, in the experiment on HS 578T breast and in the experiment with MCF7 breast was above 100 µM each time.

Take `C[C@H]1C=C2[C@@H]3CC(C)(C(=O)O)CC[C@]3(C)CC[C@]2(C)[C@]2(C)CC[C@H]3C(C)(C)[C@@H](OC(=O)c4cccc5c(=O)c6ccccc6[nH]c45)CC[C@]3(C)[C@@H]12` (stereo not given in full): the TGI in the experiment with HCT-15 colon, in the experiment with UACC-62 melanoma, with SK-MEL-28 melanoma, in the experiment on NCI-H226 lung, with TK-10 renal and in the experiment on HCT-116 colon was above 100 µM each time. The TGI in the experiment with SF-268 CNS, in the experiment on OVCAR-4 ovarian, with HS 578T breast and in the experiment on MCF7 breast was above 100 µM throughout.

As for `CC(C)[C@@H]1ON1C(C)c1ccccc1` (stereo not given in full), the TGI in the experiment with HCT-15 colon, in the experiment with UACC-62 melanoma, in the experiment with SK-MEL-28 melanoma, with NCI-H226 lung, with TK-10 renal and in the experiment with HCT-116 colon was above 100 µM throughout. Further, the TGI with SF-268 CNS, in the experiment on OVCAR-4 ovarian, with HS 578T breast and in the experiment on MCF7 breast was above 100 µM in each case.

On to `OC(c1ccc(-c2ccccc2)cc1)C(F)(F)c1nc2ccccc2o1` (stereo not given), for which the TGI with HCT-15 colon, with UACC-62 melanoma, with SK-MEL-28 melanoma, with NCI-H226 lung, with TK-10 renal and in the experiment on HCT-116 colon was above 100 µM in each case. Moreover, the TGI in the experiment with SF-268 CNS is above 100 µM; with OVCAR-4 ovarian, 50.4 µM; in the experiment with HS 578T breast it was 70.2 µM; in the experiment with MCF7 breast it was above 100 µM.

`Brc1ccc(-c2cn3ccncc3n2)cc1`: the TGI with HCT-15 colon, with UACC-62 melanoma, in the experiment with SK-MEL-28 melanoma, with NCI-H226 lung, in the experiment with TK-10 renal and in the experiment on HCT-116 colon was above 100 µM throughout. Moreover, the TGI in the experiment with SF-268 CNS, with OVCAR-4 ovarian, in the experiment on HS 578T breast and in the experiment with MCF7 breast was above 100 µM each time.

As to `COC(=O)c1c(OC(C)=O)ccc2c1c1c(OC(C)=O)c3ccccc3c(OC(C)=O)c1n2Cc1ccccc1`, the TGI in the experiment with HCT-15 colon is 14.7 µM; in the experiment with UACC-62 melanoma it was 20.3 µM; with SK-MEL-28 melanoma, 33.5 µM; with NCI-H226 lung it was above 50 µM; in the experiment with TK-10 renal, above 50 µM; in the experiment on HCT-116 colon it was 11.5 µM. The TGI in the experiment on SF-268 CNS is 19.4 µM; with OVCAR-4 ovarian, 29.6 µM; in the experiment on HS 578T breast, above 50 µM; with MCF7 breast, above 50 µM.

`COc1ccc(-n2cnc3c(NC(CCSC)C(=O)O)ncnc32)cc1` (stereo not given): the TGI in the experiment on HCT-15 colon, with UACC-62 melanoma, with SK-MEL-28 melanoma, in the experiment with NCI-H226 lung, in the experiment on TK-10 renal and in the experiment with HCT-116 colon was above 100 µM in each case. Also, the TGI with SF-268 CNS, in the experiment with OVCAR-4 ovarian, in the experiment on HS 578T breast and in the experiment on MCF7 breast was above 100 µM each time.

As for `CC(C)(CC(O)C#N)/[N+]([O-])=[N+](\[O-])C(C)(C)CC(O)C#N` (stereo not given), the TGI with HCT-15 colon is 38.5 µM; in the experiment on UACC-62 melanoma it was 37.2 µM; with SK-MEL-28 melanoma, above 100 µM; in the experiment with NCI-H226 lung, 77 µM; with TK-10 renal, 96 µM; with HCT-116 colon, 32.7 µM. The TGI in the experiment on SF-268 CNS was 83.1 µM; in the experiment on OVCAR-4 ovarian it was 81 µM; with HS 578T breast it was above 100 µM; in the experiment on MCF7 breast it was 65.5 µM.

In the case of `COc1cccc(NC(=O)C(C#N)=C(SC)SC)c1`, the TGI with HCT-15 colon, in the experiment on UACC-62 melanoma, with SK-MEL-28 melanoma, in the experiment on NCI-H226 lung, with TK-10 renal and in the experiment with HCT-116 colon was above 100 µM in each case. Besides, the TGI in the experiment with SF-268 CNS, in the experiment on OVCAR-4 ovarian, with HS 578T breast and in the experiment on MCF7 breast was above 100 µM each time.

On to `CC(C)(C)c1cc(C2COC(c3cc(C(C)(C)C)c(O)c(C(C)(C)C)c3)CO2)cc(C(C)(C)C)c1O` (stereo not given), for which the TGI in the experiment with HCT-15 colon, in the experiment on UACC-62 melanoma, with SK-MEL-28 melanoma, in the experiment on NCI-H226 lung, in the experiment on TK-10 renal and with HCT-116 colon was above 100 µM throughout. The TGI with SF-268 CNS, with OVCAR-4 ovarian, in the experiment on HS 578T breast and with MCF7 breast was above 100 µM throughout.

Take `CCC[C@H](C)C[C@H](C)C[C@H](C)/C=C(\C)[C@@H](O)[C@@H](C)C(=O)CC`: the TGI in the experiment on HCT-15 colon was found to be 41.7 µM; in the experiment with UACC-62 melanoma, 33.8 µM; in the experiment with SK-MEL-28 melanoma, 33.4 µM; in the experiment with NCI-H226 lung it was 42.6 µM; with TK-10 renal, 38.3 µM; with HCT-116 colon it was 33.9 µM. In addition, the TGI was 39.6 µM in the experiment on SF-268 CNS, 36.8 µM with OVCAR-4 ovarian, 51.8 µM with HS 578T breast and 42.7 µM in the experiment on MCF7 breast.
